Data reported in patent US6455528B1, “Piperazine compounds and medicinal use thereof” (Mitsubishi Pharma Corporation, priority 1997, dated 2002).
Where a name gives a salt, the structure may show the parent alone.

Compound	melting point
NCc1ccc(CN2CCN(c3ncccn3)CC2)cc1 [Example 74, 2-(4-(4-(Aminomethyl)phenylmethyl)-piperazin-1-yl)pyrimidine]	70 to 72 °C
CC(=O)NCc1ccc(CN2CCN(c3ccc(F)cc3Br)CC2)cc1 (as salt: hydrochloride)	231 to 235 °C
CC(=O)NC(C)c1ccc(CN2CCN(c3ccc(F)cc3F)CC2)cc1 (stereo not shown) [Example 49, N-(1-(4-((4-(2,4-Difluorophenyl)piperazin-1-yl)methyl)phenyl)ethyl)acetamide]	109 to 111 °C
CC(=O)NC1(c2ccc(C(C)N3CCN(c4ccc(F)cc4)CC3)cc2)CC1 (stereo not shown) [Example 67, N-(1-(4-(1-(4-(4-Fluorophenyl)piperazin-1-yl)ethyl)phenyl)cyclopropyl)acetamide]	149 to 150 °C
CC(=O)NC1(c2ccc(CN3CCN(c4ccc(F)cc4F)CC3)cc2)CC1 [Example 66, N-(1-(4-((4-(2,4-Difluorophenyl)-piperazin-1-yl)methyl)phenyl)cyclopropyl)acetamide]	124 to 125 °C
CC(=O)NCCc1ccc(CN2CCN(c3ccc(F)cc3)CC2)cc1 [Example 27, N-(2-(4-((4-(4-Fluorophenyl)piperazin-1-yl)methyl)phenyl)ethyl)acetamide]	121 to 123 °C
O=CNCc1ccc(CN2CCN(c3ncccn3)CC2)cc1 [Example 76, N-(4-((4-(Pyrimidin-2-yl)piperazin-1-yl)methyl)phenylmethyl)formamide]	97 to 98 °C
CC(=O)NCc1ccc(CN2CCN(c3nc(Cl)cc(Cl)n3)CC2)cc1 [Example 80, N-(4-((4-(4,6-Dichloropyrimidin-2-yl)piperazin-1-yl)methyl)phenylmethyl)acetamide]	139 to 140 °C
CC(=O)NCc1ccc(CN2CCN(c3nc(C)cc(C)n3)CC2)cc1 [Example 93, N-(4-((4-(4,6-Dimethylpyrimidin-2-yl)piperazin-1-yl)methyl)phenylmethyl)acetamide]	127 to 128 °C
CCC(NC(C)=O)c1ccc(CN2CCN(c3ccc(F)cc3F)CC2)cc1 (stereo not shown) [Example 55, N-(1-(4-((4-(2,4-Difluorophenyl)piperazin-1-yl)methyl)phenyl)propyl)acetamide]	137 to 138 °C
CC(=O)NCc1ccc(CN2CCN(c3ccccc3)CC2)cc1[N+](=O)[O-] [Example 21, N-(2-Nitro-4-((4-phenylpiperazin-1-yl)methyl)phenylmethyl)acetamide]	135 to 136 °C
CC(=O)NCc1ccc(CN2CCN(c3cc(Cl)nc(Cl)n3)CC2)cc1 [Example 89, N-(4-((4-(2,6-Dichloropyrimidin-4-yl)piperazin-1-yl)methyl)phenylmethyl)acetamide]	165 to 166 °C
CC(=O)NCc1ccc(CN2CCN(c3ccc(F)cc3Cl)CC2)cc1 [Example 44, N-(4-((4-(2-Chloro-4-fluorophenyl)piperazin-1-yl)methyl)phenylmethyl)acetamide]	255 to 257 °C
CC(=O)NCc1ccc(C(C)N2CCN(c3ccccc3)CC2)cc1 (stereo not shown) (as salt: hydrochloride)	233 to 235 °C (dec.)
COc1cc(N(C)C)nc(N2CCN(Cc3ccc(CNC(C)=O)cc3)CC2)n1 [Example 110, N-(4-((4-(4-Dimethylamino-6-methoxypyrimidin-2-yl)piperazin-1-yl)methyl)phenylmethyl)acetamide]	115 to 118 °C
CC(=O)NCc1ccc(CN2CCN(c3nc(F)cc(F)n3)CC2)cc1 [Example 78, N-(4-((4-(4,6-Difluoropyrimidin-2-yl)piperazin-1-yl)methyl)phenylmethyl)acetamide]	128 to 129 °C
CC(=O)NCc1c(C)cc(CN2CCN(c3ccc(F)cc3)CC2)cc1C [Example 18, N-(4-(4-(4-Fluorophenyl)piperazin-1-ylmethyl)-2,6-dimethylphenylmethyl)acetamide]	163 to 164 °C
CC(=O)NCc1ccc(CN2CCN(c3cc(F)nc(F)n3)CC2)cc1 [Example 79, N-(4-((4-(2,6-Difluoropyrimidin-4-yl)piperazin-1-yl)methyl)phenylmethyl)acetamide]	127 to 128 °C
CC(=O)NCc1ccc(CN2CCN(c3ccc(F)cc3)CC2)cc1N [Example 24, N-(2-Amino-4-((4-(4-fluorophenyl)piperazin-1-yl)methyl)phenylmethyl)acetamide]	163 to 164 °C
NCc1ccc(CN2CCN(c3ccccc3)CC2)cc1 [Example 2, 4-((4-(Aminomethyl)phenyl)methyl)-1-phenylpiperazine]	68 to 70 °C
CC(=O)NCc1ccc(CN2CCN(c3ncc([N+](=O)[O-])s3)CC2)cc1 [Example 88, N-(4-((4-(5-Nitrothiazol-2-yl)piperazin-1-yl)methyl)phenylmethyl)acetamide]	151 to 152 °C
CC(=O)NCc1ccc(CN2CCN(c3ncc(Cl)s3)CC2)cc1 [Example 112, N-(4-((4-(5-Chlorothiazol-2-yl)piperazin-1-yl)methyl)phenylmethyl)acetamide]	142 to 145 °C (dec.)
CC(=O)NCc1ccc(C(C)N2CCN(c3ccc(F)cc3)CC2)cc1 (stereo not shown) [Example 59, N-(4-(1-(4-(4-Fluorophenyl)piperazin-1-yl)ethyl)phenylmethyl)acetamide]	128 to 130 °C

Continued, values first:

melting point	Compound
139 to 140 °C	CCC(CC)(NC(C)=O)c1ccc(CN2CCN(c3ccccc3)CC2)cc1 [Example 56, N-(1-Ethyl-1-(4-((4-phenylpiperazin-1-yl)methyl)phenyl)propyl)acetamide]
196 to 200 °C	CC(=O)NC(C)c1ccc(CN2CCN(c3ccccc3)CC2)cc1 (stereo not shown) (as salt: hydrochloride) (hydrate or solvate) [Example 58, N-(1-(4-((4-Phenylpiperazin-1-yl)methyl)phenyl)ethyl)acetamide Dihydrochloride 1/4 Hydrate]
129 to 130 °C	CC(=O)NC(C)(C)c1ccc(CN2CCN(c3ccccn3)CC2)cc1 [Example 105, N-(1-Methyl-1-(4-((4-(pyridin-2-yl)piperazin-1-yl)methyl)phenyl)ethyl)acetamide]
117 to 118 °C	CC(=O)NCCc1ccc(CN2CCN(c3ccccc3)CC2)cc1 [Example 14, N-(2-(4-((4-Phenylpiperazin-1-yl)methyl)phenyl)ethyl)acetamide]
164 to 166 °C	CC(=O)NCc1ccc(CN2CCN(c3ccc(F)cc3)CC2)cc1 [Example 5, N-(4-((4-(4-fluorophenyl)piperazin-1-yl)methyl)phenylmethyl)acetamide]
194 to 195 °C	CC(=O)NCc1ccc(CN2CCN(c3ncccn3)CC2)cc1 (as salt: hydrochloride) (hydrate or solvate) [Example 73, N-(4-((4-(Pyrimidin-2-yl)piperazin-1-yl)methyl)phenylmethyl)acetamide Dihydrochloride Monohydrate]
120 to 121 °C	CC(=O)NC(C)c1ccc(CN2CCN(c3ccccn3)CC2)cc1 (stereo not shown) [Example 104, N-(1-(4-((4-(Pyridin-2-yl)piperazin-1-yl)methyl)phenyl)ethyl)acetamide]
179 to 181 °C	CC(=O)NCc1ccc(C(C)(C)N2CCN(c3ccc(F)cc3)CC2)cc1 (as salt: hydrochloride) (hydrate or solvate)
132 to 133 °C	CC(=O)NCc1ccc(CN2CCN(c3ccnc(Cl)n3)CC2)cc1 [Example 97, N-(4-((4-(2-Chloropyrimidin-4-yl)piperazin-1-yl)methyl)phenylmethyl)acetamide]
145 to 147 °C	CC(=O)NC1(c2ccc(CN3CCN(c4ccccn4)CC3)cc2)CC1 [Example 118, N-(1-(4-((4-(Pyridin-2-yl)piperazin-1-yl)methyl)phenyl)cyclopropyl)acetamide]
164 to 166 °C	CC(=O)NCc1ccc(CN2CCN(c3ccncc3)CC2)cc1 [Example 84, N-(4-((4-(Pyridin-4-yl)piperazin-1-yl)methyl)phenylmethyl)acetamide]
218 to 220 °C	CC(=O)NCc1ccc(CN2CCN(c3ccc(O)cc3)CC2)cc1 (as salt: hydrochloride) [Example 36, N-(4-((4-(4-Hydroxyphenyl)piperazin-1-yl)methyl)phenylmethyl)acetamide Dihydrochloride]
135 to 136 °C	CC(=O)NC1(c2ccc(CN3CCN(c4cccc(F)n4)CC3)cc2)CC1 [Example 117, N-(1-(4-((4-(6-Fluoropyridin-2-yl)piperazin-1-yl)methyl)phenyl)cyclopropyl)acetamide]
120 to 121 °C	CC(=O)NCc1ccc(CN2CCN(c3nccs3)CC2)cc1 (as salt: hydrochloride) (hydrate or solvate) [Example 81, N-(4-((4-(Thiazol-2-yl)piperazin-1-yl)methyl)phenylmethyl)acetamide Hydrochloride 1/2 Hydrate]
109 to 110.5 °C	CCC(NC(C)=O)c1ccc(CN2CCN(c3ccccc3)CC2)cc1 (stereo not shown) [Example 53, N-(1-(4-((4-Phenylpiperazin-1-yl)methyl)phenyl)propyl)acetamide]
113 to 115 °C	COc1ccnc(N2CCN(Cc3ccc(C(C)NC(C)=O)cc3)CC2)n1 (stereo not shown) [Example 107, N-(1-(4-((4-(4-Methoxypyrimidin-2-yl)piperazin-1-yl)methyl)phenyl)ethyl)acetamide]
118 to 119 °C	CC(=O)NCc1ccc(CN2CCN(c3cnccn3)CC2)cc1 [Example 87, N-(4-((4-(Pyrazin-2-yl)piperazin-1-yl)methyl)phenylmethyl)acetamide]
137 to 138 °C	CC(=O)NC(C)(C)c1ccc(CN2CCN(c3ncccn3)CC2)cc1 [Example 95, N-(1-Methyl-1-(4-((4-(pyrimidin-2-yl)piperazin-1-yl)methyl)phenyl)ethyl)acetamide]
184 to 185 °C	CC(=O)NC1(c2ccc(CN3CCN(c4nccs4)CC3)cc2)CC1 [Example 100, N-(1-(4-((4-(Thiazol-2-yl)piperazin-1-yl)methyl)phenyl)cyclopropyl)acetamide]
225 to 226 °C	CC(=O)NCc1ccc(CN2CCN(c3ccc(NC(C)=O)cc3)CC2)cc1 [Example 35, N-(4-((4-(4-Acetamidophenyl)piperazin-1-yl)methyl)phenylmethyl)acetamide]
